Measurements: patent publication US12446582B2 (priority 2018, dated 2025)
Entries after “also recorded” stand apart in the source; their conditions may differ. Read-outs that look alike come from different tables or passages of the source.

Test system: Fusarium pseudograminearum
[1] = average of 5 trials, compared to untreated T1
[2] = average of 5 trials, compared to untreated T1, listed as T2
[3] = average of 5 trials, untreated T1 = 100.00

Experimental: 5 wheat trial locations were selected across the main wheat growing areas of Australia. All five sites have a history of crown rot and high stubble load coming out of susceptible rotation crop. Soil samples were taken to confirm the pathogen pressure. The seeds were treated with a Rotostat Seed Treater with 800 ml slurry volume per 100 kg of seeds. Planting for the trials took place between 2 June and 14 June using a 6 to 8 row planter. The number of plants was counted 35-65 days after sowing on 2×5 m row. The number of wheat plants with white heads per plot was assessed at full ripe and recorded as % compared to the untreated plants which were taken as reference. Yield grain data was taken at the end of the season.

O=C(NC1CCC1c1ccc(Cl)cc1Cl)c1cccnc1C(F)(F)F (stereo not drawn) [Compound 1]
Final emergence counts % increase compared to T1 [1]: 7.52% | Plot yields % increase compared to T1 [1]: 26% | White heads % reduction compared to T1 [1]: 34% | Plot yields % increase compared to T1 [2]: 26.32% | White heads % reduction compared to T1 [2]: 34.20% | White heads Average (average of 5 trials, % compared to untreated T1 = 100.00): 66.80% | Final emergence counts Average [3]: 107.52 | Plot yields Average [3]: 126.32 | White heads AR0T020 (trial AR0T020, Merredin, WA, variety Cobra, seed treatment, % compared to untreated T1 = 100.00, at full ripe): 32.86% | Plot yields AR0T020 (trial AR0T020, Merredin, WA, variety Cobra, seed treatment, full plot harvest, untreated T1 = 100.00): 127.83 | Final emergence counts AR0T020 (trial AR0T020, Merredin, WA, variety Cobra, seed treatment, untreated T1 = 100.00): 101.87 | White heads AR0T021 (trial AR0T021, Tammin, WA, variety Cobra, seed treatment, % compared to untreated T1 = 100.00, at full ripe): 28.45% | Plot yields AR0T021 (trial AR0T021, Tammin, WA, variety Cobra, seed treatment, full plot harvest, untreated T1 = 100.00): 107.62 | Final emergence counts AR0T021 (trial AR0T021, Tammin, WA, variety Cobra, seed treatment, untreated T1 = 100.00): 118.36 | White heads DL0T013 (trial DL0T013, Bunnaloo, NSW, variety Aurora (Durum), seed treatment, % compared to untreated T1 = 100.00, at full ripe): 92.59% | Plot yields DL0T013 (trial DL0T013, Bunnaloo, NSW, variety Aurora (Durum), seed treatment, full plot harvest, untreated T1 = 100.00): 116.90 | Final emergence counts DL0T013 (trial DL0T013, Bunnaloo, NSW, variety Aurora (Durum), seed treatment, untreated T1 = 100.00): 100.80 | White heads GS0T007 (trial GS0T007, Redhill, SA, variety Saintly (Durum), seed treatment, % compared to untreated T1 = 100.00, at full ripe): 74.52% | Plot yields GS0T007 (trial GS0T007, Redhill, SA, variety Saintly (Durum), seed treatment, full plot harvest, untreated T1 = 100.00): 162.86 | Final emergence counts GS0T007 (trial GS0T007, Redhill, SA, variety Saintly (Durum), seed treatment, untreated T1 = 100.00): 113.09 | White heads N10T669 (trial N10T669, Bellata, NSW, variety Lillaroi (Durum), seed treatment, % compared to untreated T1 = 100.00, at full ripe): 105.57% | Plot yields N10T669 (trial N10T669, Bellata, NSW, variety Lillaroi (Durum), seed treatment, full plot harvest, untreated T1 = 100.00): 116.41 | Final emergence counts N10T669 (trial N10T669, Bellata, NSW, variety Lillaroi (Durum), seed treatment, untreated T1 = 100.00): 103.48 | yield increase compared to other commercial treatments (in words) (wheat seed treatment, compared to commercial treatments T3-T5): more than double; also recorded: more than twice as much
